Biological target: T1, H^+ --K^+ ATPase (Sus scrofa, UniProt P19156)
T1 construct: prepared from a gland portion of the gastric fundus of the gastiric mucosa of a fresh pig; from tissue; host or cells: gland portion of the gastric fundus mucosa, fresh pig
Test: H+-K+ ATPase activity inhibition
Assay type: biochemical
Details: pig gastric fundus gland H+-K+ ATPase; pH 7.40, 37° C., 30 min incubation; compound dissolved in methanol; read-out: inhibitory effect on H+-K+ ATPase activity, IC50
Protocol: H^+ --K^+ ATPase activity inhibition
(1) Preparation of H^+ --K^+ ATPase:
H^+ --K^+ ATPase was prepared from a gland portion of the gastric fundus of the gastiric mucosa of a fresh pig by the modification of a method of Saccomani et al., Biochem. and Biophys.
(2) Determination of H^+ --K^+ ATPase activity:
The compound of the present invention was incubated in various concentrations together with H^+ --K^+ ATPase and 10 μg/ml of protein in 40 mM of Tris-HCl having a pH value of 7.40 at 37° C. for 30 min. 15 mM of KCl was added thereto. 10 min after the addition, an ATPase reaction was initiated by addition of 3 mM of MgCl2 and ATP. 10 min after the initiation of the reaction, the amount of the released inorganic phosphoric acid was measured according to the method of Yoda and Hokin, Biochem. Biophys.
The test compound was dissolved in methanol prior to use.
The inhibitory effect was determined as follows. The measured value of the test compound was subtracted from the measured value of the control group to determine the difference in the measured values therebetween. The inhibitory effect was calculated as the percentage of the difference relative to the measured value of the control group. In the Table, the inhibitory effect was expressed in terms of IC50.

T1 sequence (P19156 2-1034 limits assumed): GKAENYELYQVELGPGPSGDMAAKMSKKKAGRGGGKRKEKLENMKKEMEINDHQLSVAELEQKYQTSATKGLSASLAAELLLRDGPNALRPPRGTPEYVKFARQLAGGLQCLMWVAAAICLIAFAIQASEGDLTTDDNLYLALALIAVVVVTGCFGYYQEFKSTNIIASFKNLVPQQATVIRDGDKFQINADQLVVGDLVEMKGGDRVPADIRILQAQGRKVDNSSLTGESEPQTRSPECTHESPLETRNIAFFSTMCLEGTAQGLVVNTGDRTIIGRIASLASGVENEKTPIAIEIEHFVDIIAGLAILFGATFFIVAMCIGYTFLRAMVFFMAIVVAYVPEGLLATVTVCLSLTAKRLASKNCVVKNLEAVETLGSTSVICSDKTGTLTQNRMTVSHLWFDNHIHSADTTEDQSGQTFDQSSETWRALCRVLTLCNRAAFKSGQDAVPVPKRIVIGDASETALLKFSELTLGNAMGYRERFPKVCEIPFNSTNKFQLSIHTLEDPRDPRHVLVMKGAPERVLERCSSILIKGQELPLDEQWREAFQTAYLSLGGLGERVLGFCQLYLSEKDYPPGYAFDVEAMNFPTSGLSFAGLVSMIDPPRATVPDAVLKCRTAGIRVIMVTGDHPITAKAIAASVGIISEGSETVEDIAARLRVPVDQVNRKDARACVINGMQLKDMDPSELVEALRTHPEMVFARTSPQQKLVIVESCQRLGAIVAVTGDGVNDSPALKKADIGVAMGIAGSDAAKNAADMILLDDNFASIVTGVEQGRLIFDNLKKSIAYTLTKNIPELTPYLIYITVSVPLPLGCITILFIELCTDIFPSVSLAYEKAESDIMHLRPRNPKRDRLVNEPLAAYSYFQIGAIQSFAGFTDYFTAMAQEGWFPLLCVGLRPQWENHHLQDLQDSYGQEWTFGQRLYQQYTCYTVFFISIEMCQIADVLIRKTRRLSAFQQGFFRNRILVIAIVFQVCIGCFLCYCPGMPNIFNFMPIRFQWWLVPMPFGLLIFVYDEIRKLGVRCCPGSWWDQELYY
T1 sequence (P18434 whole entry partner): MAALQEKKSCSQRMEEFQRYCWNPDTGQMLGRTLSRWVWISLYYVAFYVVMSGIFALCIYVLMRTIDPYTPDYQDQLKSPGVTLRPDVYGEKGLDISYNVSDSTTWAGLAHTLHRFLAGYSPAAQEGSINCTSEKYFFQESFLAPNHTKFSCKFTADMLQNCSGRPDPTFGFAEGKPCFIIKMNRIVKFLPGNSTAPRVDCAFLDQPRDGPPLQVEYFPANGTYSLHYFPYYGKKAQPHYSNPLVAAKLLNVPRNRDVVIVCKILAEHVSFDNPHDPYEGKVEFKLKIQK

SMILES	IC50
CCCCOCCOc1ccnc(C[S+]([O-])c2nc3ccccc3[nH]2)c1C (centres unmarked)	1.8 µM
CCCCOCCOc1ccnc(C[S+]([O-])c2nc3cc(C(F)(F)F)ccc3[nH]2)c1C (centres unmarked) [No. 3]	1.1 µM
CCCCOCCOc1ccnc(C[S+]([O-])c2nc3cc(C)c(C)cc3[nH]2)c1C (centres unmarked) [No. 4]	2.2 µM
COCCOc1ccnc(C[S+]([O-])c2nc3ccccc3[nH]2)c1C (centres unmarked) [No. 10]	3.3 µM
COCCOc1ccnc(C[S+]([O-])c2nc3cc(C(F)(F)F)ccc3[nH]2)c1C (centres unmarked) [No. 11]	1.7 µM

Continued, values first:

IC50	SMILES
1.8 µM	CCCCOCCOc1ccnc(C[S+]([O-])c2nc3cc(Cl)ccc3[nH]2)c1C (centres unmarked) [No. 2]
3 µM	CCCCOCCOc1ccnc(C[S+]([O-])c2nc3cc(OC)ccc3[nH]2)c1C (centres unmarked) [No. 5]
2.8 µM	CCOCCOc1ccnc(C[S+]([O-])c2nc3ccccc3[nH]2)c1C (centres unmarked) [No. 6]
3.4 µM	CCOCCOc1ccnc(C[S+]([O-])c2nc3cc(OC)ccc3[nH]2)c1C (centres unmarked) [No. 9]
5.6 µM	COCCOc1ccnc(C[S+]([O-])c2nc3cc(OC)ccc3[nH]2)c1C (centres unmarked) [No. 12]

System: not given
Test: not given
Details: reported, prior art; cited from earlier work

SMILES	side effects
CN/C(=N/CCSCc1nc[nH]c1C)NC#N [cimetidine]	antiandrogenic action or a metabolic enzymatic activity inhibitory action upon liver
